How the values were obtained:
Conditions in all cases: 72 h
Caco-2 [1] = test: cell viability relative to DMSO; higher = less toxic
Calu-3 [2] = test: as above
HepG2 [3] = test: as above
U2OS [4] = test: as above
Vero E6 [5] = test: as above
Caco-2 [6] = test: relative viability EC50 (midpoint between 100% and the lowest measured viability); higher = less toxic
Calu-3 [7] = test: as above
HepG2 [8] = test: as above
U2OS [9] = test: as above
Vero E6 [10] = test: as above
Caco-2 [11] = test: drug sensitivity score (DSS) for viability; higher = more toxic; extreme values may be limits of the assay
Calu-3 [12] = test: as above
HepG2 [13] = test: as above
U2OS [14] = test: as above
Vero E6 [15] = test: as above

| SMILES | cell viability (Caco-2 [1]; 1 nM) [%] | cell viability (Caco-2 [1]; 10 nM) [%] | cell viability (Caco-2 [1]; 100 nM) [%] | cell viability (Caco-2 [1]; 1000 nM) [%] | cell viability (Caco-2 [1]; 10000 nM) [%] | cell viability (Calu-3 [2]; 1 nM) [%] | cell viability (Calu-3 [2]; 10 nM) [%] | cell viability (Calu-3 [2]; 100 nM) [%] | cell viability (Calu-3 [2]; 1000 nM) [%] | cell viability (Calu-3 [2]; 10000 nM) [%] | cell viability (HepG2 [3]; 1 nM) [%] | cell viability (HepG2 [3]; 10 nM) [%] | cell viability (HepG2 [3]; 100 nM) [%] | cell viability (HepG2 [3]; 1000 nM) [%] | cell viability (HepG2 [3]; 10000 nM) [%] | cell viability (U2OS [4]; 1 nM) [%] | cell viability (U2OS [4]; 10 nM) [%] | cell viability (U2OS [4]; 100 nM) [%] | cell viability (U2OS [4]; 1000 nM) [%] | cell viability (U2OS [4]; 10000 nM) [%] | cell viability (Vero E6 [5]; 1 nM) [%] | cell viability (Vero E6 [5]; 10 nM) [%] | cell viability (Vero E6 [5]; 100 nM) [%] | cell viability (Vero E6 [5]; 1000 nM) [%] | cell viability (Vero E6 [5]; 10000 nM) [%] | relative viability EC50 (Caco-2 [6]) [µM] | relative viability EC50 (Calu-3 [7]) [µM] | relative viability EC50 (HepG2 [8]) [µM] | relative viability EC50 (U2OS [9]) [µM] | relative viability EC50 (Vero E6 [10]) [µM] | drug sensitivity score (Caco-2 [11]) | drug sensitivity score (Calu-3 [12]) | drug sensitivity score (HepG2 [13]) | drug sensitivity score (U2OS [14]) | drug sensitivity score (Vero E6 [15]) |
| --- | --- | --- | --- | --- | --- | --- | --- | --- | --- | --- | --- | --- | --- | --- | --- | --- | --- | --- | --- | --- | --- | --- | --- | --- | --- | --- | --- | --- | --- | --- | --- | --- | --- | --- | --- |
| CC(C)c1cc(-c2ccc(F)c3ccccc23)nc(N)n1 | 90.7 | 101 | 102 | 92.7 | 101 | 80.3 | 103 | 99.7 | 107 | 108 | 103 | 119 | 99.2 | 99.3 | 113 | 93.1 | 96.6 | 98.7 | 97.9 | 100 | 94.1 | 98.6 | 98.8 | 102 | 107 | > 10 | > 10 | > 10 | > 10 | > 10 | 0 | 0 | 0 | 0 | 0 |
| CC1(C)OC[C@H](NC(=O)Nc2ccc(Br)cc2Br)[C@H](c2ccccc2)O1 | 94.5 | 98.8 | 95.3 | 103 | 85.8 | 99.1 | 89.6 | 111 | 103 | 92.8 | 95.4 | 89.8 | 93.6 | 91.1 | 95.5 | 93.3 | 98 | 96.6 | 98.5 | 89.6 | 102 | 101 | 101 | 93.9 | 95.7 | > 10 | > 10 | > 10 | > 10 | > 10 | 0.1 | 0 | 0 | 0 | 0 |
| CNC(=O)c1ccc2c(c1)CCO[C@H]2CCN1CCN(c2ccc(C(N)=O)cc2)CC1 | 94.9 | 105 | 91.9 | 102 | 97.1 | 99.7 | 81.1 | 95.2 | 107 | 100 | 103 | 104 | 95.2 | 98.9 | 99.6 | 99.5 | 106 | 100 | 103 | 101 | 105 | 102 | 104 | 99.1 | 107 | > 10 | > 10 | > 10 | > 10 | > 10 | 0 | 0 | 0 | 0 | 0 |
| COC(=O)[C@H](NC(=O)c1cc(-c2ccccc2)nc2ccccc12)c1ccccc1 | 110 | 94.9 | 106 | 104 | 109 | 104 | 93 | 101 | 102 | 103 | 91.4 | 99.6 | 96.4 | 89.6 | 103 | – | – | – | – | – | 92.6 | 91.3 | 91.5 | 92.7 | 100 | > 10 | > 10 | > 10 | – | > 10 | 0 | 0 | 0 | – | 0 |
| COc1cc(OC)c(NC(=O)Nc2cc(C)on2)cc1Cl | 98.9 | 102 | 90.3 | 96.3 | 90 | 86.7 | 98.4 | 97.2 | 95.1 | 90 | 102 | 108 | 97 | 110 | 103 | 97 | 99.9 | 97.2 | 98.4 | 97.4 | 99 | 104 | 102 | 104 | 96.8 | > 10 | > 10 | > 10 | > 10 | > 10 | 0 | 0 | 0 | 0 | 0 |
| COc1cc(Oc2ccnc3cc(OC)c(OC)cc23)ccc1NC(=O)NC(C)c1nccs1 (stereo not drawn) | 100 | 104 | 87.7 | 97.2 | 88.2 | 94.5 | 98.7 | 91.6 | 113 | 97.3 | 93.1 | 104 | 91.7 | 98.8 | 87.9 | 95.1 | 98.8 | 93.8 | 95.6 | 90.1 | 100 | 101 | 91 | 96.2 | 95.6 | > 10 | > 10 | > 10 | > 10 | > 10 | 0 | 0 | 0 | 0 | 0 |
